37 molecules from patent US9890142B2, “PDE4 inhibitor” (Meiji Seika Pharma Co., Ltd., priority 2013, dated 2018) can be followed below.

The assay concerns PDE4. As to the kind of experiment: Evaluation of PDE4 inhibition (scintillation proximity assay). To be noted: inhibition rate relative to control, test compound at 1 μM. The format is biochemical. The method, then: Test Example 1 Evaluation of PDE4 Inhibition
The PDE4 inhibitory activity was measured by using scintillation proximity assay (SPA) as follows: one in which a sample compound dissolved in dimethyl sulfoxide was diluted 10-fold with a buffer solution for reaction containing 50 mM Tris-HCl, pH 7.5, 8.3 mM MgCl2, 1.7 mM EDTA and 0.3 mg/mL bovine serum albumin (BSA) was added at 10 μL/well to a 96-well assay plate. Further, PDE4 diluted 750-fold with a buffer solution for reaction was added at 50 μL/well, then [2,8-^3H]-Adenosine-3′,5′-cyclic phosphate triethylammonium salt diluted 1000-fold with a buffer solution for reaction was added at 40 μL/well, and the plate was left standing at room temperature for 120 minutes. Thereafter, a suspension of RNA binding YSi-SPA Beads containing 200 mM ZnSO4 was added at 50 μL/well, and the plate was left standing at room temperature for 15 minutes to adsorb the enzyme reaction product onto the Beads. Thereafter, the radioactivity was measured with a liquid scintillation counter for 96-well plates. When one supplemented with only a buffer solution for reaction without adding the enzyme preparation was used as a blank and one supplemented with the enzyme preparation but supplemented with only dimethyl sulfoxide instead of the sample solution was used as a control, the inhibition rate of the test compound relative to the control was calculated according to the following calculation expression: Inhibition rate (%)={1−(Numeric value from the addition of each sample−Blank value)/(Control value−Blank value)}×100
Background: In a scintillation proximity assay essentially only radioactivity close to the scintillant gives light.
In the case of `Cc1c(O)c(Cl)cc2nc(N3CCNC[C@@H]3C)oc12` [Example 162, (S)-5-Chloro-6-hydroxy-7-methyl-2-(2-methylpiperazin-1-yl)benzoxazole], the “PDE4 inhibitory activity (1 μM (%))” value is 35%. Consider `C[C@H]1CNCCN1c1nc2cc(Cl)cc(-c3ncccc3F)c2o1` [Example 61, (S)-5-Chloro-7-(3-fluoropyridin-2-yl)-2-(2-methylpiperazin-1-yl)benzoxazole], for which the “PDE4 inhibitory activity (1 μM (%))” value stood at 81%.

For the molecule `C[C@H]1CNCCN1c1nc2cc(Cl)cc(Cc3ccccc3)c2o1` [Example 75, (S)-7-Benzyl-5-chloro-2-(2-methylpiperazin-1-yl)benzoxazole], the “PDE4 inhibitory activity (1 μM (%))” value is given as 45%. For `C[C@H]1CNCCN1c1nc2c(F)c(Cl)c(F)c(-c3ccccn3)c2o1` [Example 120, (S)-5-Chloro-4,6-difluoro-2-(2-methylpiperazin-1-yl)-7-(pyridin-2-yl)benzoxazole] the value was 41%; for `Cc1c(Cl)cc(-c2nccs2)c2oc(N3CCNC[C@@H]3C)nc12` [Example 132, (S)-5-Chloro-4-methyl-2-(2-methylpiperazin-1-yl)-7-(thiazol-2-yl)benzoxazole], 94%; for `Cc1c(Cl)cc(-n2cccn2)c2oc(N3CCNC[C@@H]3C)nc12` [Example 133, (S)-5-Chloro-4-methyl-2-(2-methylpiperazin-1-yl)-7-(1H-pyrazol-1-yl)benzoxazole], 92%. To `C[C@H]1CNCCN1c1nc2cc(Cl)cc(-c3cncs3)c2o1` [Example 38, (S)-5-Chloro-2-(2-methylpiperazin-1-yl)-7-(thiazol-5-yl)benzoxazole] belongs 68%; to `C[C@H]1CNCCN1c1nc2cc(C(F)(F)F)cc(-c3nccs3)c2o1` [Example 126, (S)-2-(2-Methylpiperazin-1-yl)-7-(thiazol-2-yl)-5-(trifluoromethyl)benzoxazole], 95%; to `C[C@H]1CNCCN1c1nc2c(F)c(Cl)cc(-c3nccs3)c2o1` [Example 129, (S)-5-Chloro-4-fluoro-2-(2-methylpiperazin-1-yl)-7-(thiazol-2-yl)benzoxazole], 97%. For `COc1c(Cl)cc2nc(N3CCNC[C@@H]3C)oc2c1C` [Example 161, (S)-5-Chloro-6-methoxy-7-methyl-2-(2-methylpiperazin-1-yl)benzoxazole], the “PDE4 inhibitory activity (1 μM (%))” value was 19%. For `C[C@@H]1CNCCN1c1nc2c(C(F)(F)F)c(Cl)cc(-n3cccn3)c2o1` [Example 180, (R)-5-Chloro-2-(2-methylpiperazin-1-yl)=7-(1H-pyrazol-1-yl)-4-(trifluoromethyl)benzoxazole] the value was 43%; for `C[C@H]1CNCCN1c1nc2cc(Cl)cc(S(C)(=O)=O)c2o1` [Example 145, (S)-5-Chloro-2-(2-methylpiperazin-1-yl)-7-(methylsulfonyl)benzoxazole], 80%.

`C[C@H]1CNCCN1c1nc2cc(Cl)c(C#N)c(-c3nccs3)c2o1` [Example 142, (S)-5-Chloro-6-cyano-2-(2-methylpiperazin-1-yl)-7-(thiazol-2-yl)benzoxazole]: the “PDE4 inhibitory activity (1 μM (%))” value came to 86%. Regarding `C[C@H]1CNCCN1c1nc2cc(Cl)cc(-c3ncco3)c2o1` [Example 34, (S)-5-Chloro-2-(2-methylpiperazin-1-yl)-7-(oxazol-2-yl)benzoxazole], the “PDE4 inhibitory activity (1 μM (%))” value amounted to 89%. In the case of `COc1c(Cl)cc2nc(N3CCNC[C@@H]3C)oc2c1-c1nccs1` [Example 141, (S)-5-Chloro-6-methoxy-2-(2-methylpiperazin-1-yl)-7-(thiazol-2-yl)benzoxazole], the “PDE4 inhibitory activity (1 μM (%))” value is 77%.

As for `C[C@H]1CNCCN1c1nc2c(C(F)(F)F)c(Cl)cc(-n3cccn3)c2o1` [Example 83, (S)-5-Chloro-2-(2-methylpiperazin-1-yl)-7-(1H-pyrazol-1-yl)-4-(trifluoromethyl)benzoxazole], the “PDE4 inhibitory activity (1 μM (%))” value was 92%.

For the molecule `C[C@H]1CNCCN1c1nc2cc(Cl)cc(-c3ccsn3)c2o1` [Example 54, (S)-5-Chloro-7-(isothiazole-3-yl)-2-(2-methylpiperazin-1-yl)benzoxazole], the “PDE4 inhibitory activity (1 μM (%))” value is reported as 92%. Turning to `COc1c(Cl)cc(-n2cccn2)c2oc(N3CCNC[C@@H]3C)nc12` [Example 156, (S)-5-Chloro-4-methoxy-2-(2-methylpiperazin-1-yl)-7-(1H-pyrazol-1-yl)benzoxazole], the “PDE4 inhibitory activity (1 μM (%))” value is listed as 91%. As to `C[C@H]1CNCCN1c1nc2cc(Cl)cc(N(C)C)c2o1` [Example 26, (S)-5-Chloro-7-dimethylamino-2-(2-methylpiperazin-1-yl)benzoxazole], the “PDE4 inhibitory activity (1 μM (%))” value turned out to be 61%.

As for `C[C@H]1CNCCN1c1nc2cc(Cl)cc(-c3cccc(F)n3)c2o1` [Example 60, (S)-5-Chloro-7-(6-fluoropyridin-2-yl)-2-(2-methylpiperazin-1-yl)benzoxazole], the “PDE4 inhibitory activity (1 μM (%))” value came out at 63%. Consider `C[C@H]1CNCCN1c1nc2cc(C(F)(F)F)cc(-c3ccccn3)c2o1` [Example 125, (S)-2-(2-Methylpiperazin-1-yl)-7-(pyridin-2-yl)-5-(trifluoromethyl)benzoxazole], for which the “PDE4 inhibitory activity (1 μM (%))” value is given as 91%. For the molecule `CCOc1cc(Cl)cc2nc(N3CCNC[C@@H]3C)oc12` [Example 29, (S)-5-Chloro-7-ethoxy-2-(2-methylpiperazin-1-yl)benzoxazole], the “PDE4 inhibitory activity (1 μM (%))” value stood at 63%. As for `C[C@H]1CNCCN1c1nc2c(F)c(F)cc(-c3nccs3)c2o1` [Example 90, (S)-4,5-Difluoro-2-(2-methylpiperazin-1-yl)-7-(thiazol-2-yl)benzoxazole], the “PDE4 inhibitory activity (1 μM (%))” value stood at 96%. With `Cc1cc(-c2nccs2)c2oc(N3CCNC[C@@H]3C)nc2c1` [Example 115, (S)-5-methyl-2-(2-methylpiperazin-1-yl)-7-(thiazol-2-yl)benzoxazole], the “PDE4 inhibitory activity (1 μM (%))” value is given as 91%. For `C[C@@H]1CNCCN1c1nc2c(OC(F)(F)F)c(Cl)cc(-c3ccccn3)c2o1` [Example 157, (R)-5-Chloro-2-(2-methylpiperazin-1-yl)-7-(pyridin-2-yl)-4-(trifluoromethoxy)benzoxazole], the “PDE4 inhibitory activity (1 μM (%))” value was determined as 41%. To `CCc1cc(Cl)cc2nc(N3CCNC[C@@H]3C(C)C)oc12` [Example 11, (S)-5-Chloro-7-ethyl-2-(2-isopropylpiperazin-1-yl)benzoxazole] belongs 26%; to `C[C@H]1CNCCN1c1nc2cc(Cl)cc(-c3nccs3)c2o1` [Example 35, (S)-5-Chloro-2-(2-methylpiperazin-1-yl)-7-(thiazol-2-yl)benzoxazole], 96%; to `C[C@H]1CNCCN1c1nc2cc(Cl)cc(CO)c2o1` [Example 15, (S)-5-Chloro-7-hydroxymethyl-2-(2-methylpiperazin-1-yl)benzoxazole], 21%. In the case of `C[C@H]1CNCCN1c1nc2cc(Cl)cc(-c3ncc(CO)s3)c2o1` [Example 55, (S)-5-Chloro-7-(5-hydroxymethylthiazol-2-yl)-2-(2-methylpiperazin-1-yl)benzoxazole], the “PDE4 inhibitory activity (1 μM (%))” value is 80%. `Cc1ccc(-c2cc(Cl)cc3nc(N4CCNC[C@@H]4C)oc23)o1` [Example 39, (S)-5-Chloro-7-(5-methylfuran-2-yl)-2-(2-methylpiperazin-1-yl)benzoxazole]: the “PDE4 inhibitory activity (1 μM (%))” value came to 42%. As for `Cc1c(Cl)cc2nc(N3CCNC[C@@H]3C)oc2c1-c1ccccn1` [Example 137, (S)-5-Chloro-6-methyl-2-(2-methylpiperazin-1-yl)-7-(pyridin-2-yl)benzoxazole], the “PDE4 inhibitory activity (1 μM (%))” value was determined as 33%.

`C[C@H]1CNCCN1c1nc2cc(Cl)cc(-c3ccoc3)c2o1` [Example 17, (S)-5-Chloro-7-(furan-3-yl)-2-(2-methylpiperazin-1-yl)benzoxazole]: the “PDE4 inhibitory activity (1 μM (%))” value worked out at 84%. On to `CCNC(=O)c1cc(Cl)cc2nc(N3CCNC[C@@H]3C)oc12` [Example 101, (S)-5-Chloro-7-ethylaminocarbonyl-2-(2-methylpiperazin-1-yl)benzoxazole], for which the “PDE4 inhibitory activity (1 μM (%))” value was found to be 27%. In the case of `C[C@H]1CNCCN1c1nc2cc(Cl)cc(N3CCCC3=O)c2o1` [Example 71, (S)-5-Chloro-2-(2-methylpiperazin-1-yl)-7-(2-oxo-pyrrolidin-1-yl)benzoxazole], the “PDE4 inhibitory activity (1 μM (%))” value turned out to be 30%. Take `C[C@H]1CNCCN1c1nc2c(C(F)(F)F)c(F)cc(-c3ccccn3)c2o1` [Example 117, (S)-5-Fluoro-2-(2-methylpiperazin-1-yl)-7-(pyridin-2-yl)-4-(trifluoromethyl)benzoxazole]: the “PDE4 inhibitory activity (1 μM (%))” value is recorded as 88%.

Take `C[C@H]1CNCCN1c1nc2c(F)c(F)c(F)c(-c3ccccn3)c2o1` [Example 122, (S)-4,5,6-Trifluoro-2-(2-methylpiperazin-1-yl)-7-(pyridin-2-yl)benzoxazole]: the “PDE4 inhibitory activity (1 μM (%))” value worked out at 79%. Regarding `CCCc1cc(Cl)cc2nc(N3CCNC[C@@H]3C)oc12` [Example 95, (S)-5-Chloro-2-(2-methylpiperazin-1-yl)-7-n-propylbenzoxazole], the “PDE4 inhibitory activity (1 μM (%))” value is 71%.
